Source: patent US20200361871A1 (Enterprise Therapeutics Ltd., priority 2018, published 2020)

Target: human TMEM16A (TMEM16Aabc variant) (Homo sapiens, UniProt Q5XXA6, DEL476-501, form not given)
Assay: Automated whole-cell patch clamp (Qpatch) TMEM16A potentiator assay in FRT cells stably expressing human TMEM16A
Type: cell-based
Details: for % Potentiation @ 3.33 μM Avg: 3.33 μM solution of test compound, percentage increase of baseline TMEM16A current; for EC50: calculated EC50, Qpatch TMEM16A current at +70 mV
Description: FIG. 1 is an example trace from a whole-cell patch clamp (Qpatch) TMEM16A potentiator assay as used in Biological Example 95 and illustrates the methodology used in the assay. In FIG. 1: S is Saline; V is Vehicle; #1 is Test Compound concentration #1; #2 is Test Compound concentration 2; #3 is Test Compound concentration 3; #4 is Test Compound concentration 4; #5 is Test Compound concentration #5; and R is Reference. The arrow in column V represents the baseline current, IBL. The arrows in each of the columns #1, #2, #3, #4, #5 and R represent I#[1], I#[2], I#[3], I#[4], I#[5] and I[Ref], which are the peak currents during the incubation periods for test compounds concentrations #1 to #5 and the Reference.
Fisher rat thyroid (FRT) cells stably expressing human TMEM16A (TMEM16Aabc variant; Dr Luis Galietta, Insituto Giannina, Italy) were cultured in T-75 flasks in Hams F-12 media with Coon's modification (Sigma) supplemented with 10% (v/v) foetal bovine serum, penicillin-streptomycin (10,000 U/mL/10000 μg/mL), G-418 (750 μg/mL), L-glutamine (2 mM) and sodium bicarbonate solution (7.5% v/v). At ˜90% confluence cells were harvested for experiments by detachment with a 2:1 (v/v) mixture of Detachin (BMS Biotechnology) and 0.25% (w/v) trypsin-EDTA. Cells were diluted to a density of 3.5-4.5×10^6 cells/mL with media consisting of CHO-S-SFM II (Sigma), 25 mM HEPES (Sigma) and Soy bean trypsin inhibitor (Sigma).
FRT-TMEM16A cells were whole-cell patch clamped using an automated planar patch clamp system (Qpatch, Sophion). Briefly, once high resistance (GOhm) seals were established between the cells and the planar recording array the patch was ruptured using suction pulses to establish the whole-cell recording configuration of the patch clamp technique. The assay employed the following solutions (all reagents Sigma): Intracellular solution (mM): N-methyl-D-glucamine 130, CaCl2 18.2, MgCl2 1, HEPES 10, EGTA 10, BAPTA 20, Mg-ATP 2, pH 7.25, 325 mOsm with sucrose.
Extracellular solution (mM): N-methyl-D-glucamine 130, CaCl2 2, MgCl2 1, HEPES 10, pH 7.3, 320 mOsm with sucrose.
The intracellular solution buffers intracellular calcium at levels required to give ˜20% activation of the maximal TMEM16A mediated current (EC20 for calcium ions). Cells were voltage clamped at a holding potential of −70 mV and a combined voltage step (to +70 mV)/ramp (−90 my to +90 mV) was applied at 0.05 Hz. After a period of current stabilisation test compounds, solubilised in 100% (v/v) DMSO and subsequently diluted into extracellular solution, were applied to generate a cumulative concentration response curve. Each concentration of test compound was incubated for 5 minutes before addition of the next concentration. After the final concentration was tested a supramaximal concentration of either a known active positive modulator or the TMEM16A inhibitor, CaCCinhA01 (Del La Fuente et al, 2008) was added to define the upper and lower limits of the assay.
Compound activity was quantified by measuring the increase in current upon compound addition and expressing this as a percentage increase of baseline TMEM16A current level. Percentage increases in current were determined for each concentration and the data plotted as a function of concentration using either the Qpatch software or Graphpad Prism v6.05 providing the concentration which gave 50% of its maximal effect (EC50) and maximum efficacy (percentage of baseline increase).
In FIG. 1, IBL equals baseline current, I[#1] equals the peak current during test compound concentration 1 incubation period and so on.
Peak TMEM16A current at +70 mV was plotted as a function of time over the assay period. Baseline current (IBL) was measured after a period of stabilisation. The increase in current for each compound addition was determined by taking the peak current during the incubation period and subtracting the current from the previous recording period and then expressing this as a percentage of the baseline current. […]

Sequence of human TMEM16A (TMEM16Aabc variant) (Q5XXA6 with tags, fused parts or gaps DEL476-501): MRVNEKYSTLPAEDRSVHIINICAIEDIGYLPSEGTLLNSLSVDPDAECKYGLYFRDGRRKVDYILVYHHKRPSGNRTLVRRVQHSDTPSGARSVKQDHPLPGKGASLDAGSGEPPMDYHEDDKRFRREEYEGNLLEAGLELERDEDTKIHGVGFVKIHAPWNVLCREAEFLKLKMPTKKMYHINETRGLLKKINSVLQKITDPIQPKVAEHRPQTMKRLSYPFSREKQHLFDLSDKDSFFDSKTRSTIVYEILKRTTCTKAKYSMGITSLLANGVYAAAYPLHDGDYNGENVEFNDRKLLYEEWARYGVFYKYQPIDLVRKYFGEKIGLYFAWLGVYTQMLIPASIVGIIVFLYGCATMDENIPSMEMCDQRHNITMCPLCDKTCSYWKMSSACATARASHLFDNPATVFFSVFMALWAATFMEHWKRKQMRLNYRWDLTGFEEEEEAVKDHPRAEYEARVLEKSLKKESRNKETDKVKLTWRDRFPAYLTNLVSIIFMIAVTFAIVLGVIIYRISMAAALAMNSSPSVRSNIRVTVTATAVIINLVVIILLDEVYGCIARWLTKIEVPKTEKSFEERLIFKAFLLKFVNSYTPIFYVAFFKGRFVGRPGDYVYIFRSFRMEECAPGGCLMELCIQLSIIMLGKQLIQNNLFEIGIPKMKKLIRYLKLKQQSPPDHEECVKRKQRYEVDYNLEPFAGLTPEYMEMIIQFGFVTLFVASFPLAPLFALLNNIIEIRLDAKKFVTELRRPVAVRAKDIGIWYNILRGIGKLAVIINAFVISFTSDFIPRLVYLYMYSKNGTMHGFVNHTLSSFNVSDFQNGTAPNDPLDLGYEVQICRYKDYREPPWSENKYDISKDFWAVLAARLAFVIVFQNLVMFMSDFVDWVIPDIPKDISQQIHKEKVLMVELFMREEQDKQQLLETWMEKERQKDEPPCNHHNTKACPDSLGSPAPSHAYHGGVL

Structure (SMILES): C[C@](C#N)(CO)NC(=O)c1cc(NC(=O)Cc2cc(Cl)ccc2O)ccn1 (single isomer, unassigned) [Example 46b, 4-[[2-(5-Chloro-2-hydroxy-phenyl)acetyl]amino]-N-[(1S)-1-cyano-2-hydroxy-1-methyl-ethyl]pyridine-2-carboxamide or 4-[[2-(5-chloro-2-hydroxy-phenyl)acetyl]amino]-N-[(1R)-1-cyano-2-hydroxy-1-methyl-ethyl]pyridine-2-carboxamide]
- % Potentiation @ 3.33 μM Avg: 215%

Structure (SMILES): CC(C)(C)NC(=O)c1cc(NC(=O)C2CCc3c(Cl)ccc(O)c32)ccn1 (single isomer, unassigned) [Example 57a, N-tert-butyl-4-[[(1S) or (1R)-4-chloro-7-hydroxy-indane-1-carbonyl]amino]pyridine-2-carboxamide]
- % Potentiation @ 3.33 μM Avg: 285%
- EC50: 510 nM

Structure (SMILES): CC(C)(C)NC(=O)c1cc(NC(=O)C2CCc3c(Cl)ccc(O)c32)ccn1 (single isomer, unassigned) [Example 57b, N-tert-butyl-4-[[(1S) or (1R)-4-chloro-7-hydroxy-indane-1-carbonyl]amino]pyridine-2-carboxamide]
- % Potentiation @ 3.33 μM Avg: 162%
- EC50: 670 nM

Structure (SMILES): CC(C)(C)NC(=O)c1cc(NC(=O)Cc2ccc3c(c2)OCCO3)ccn1 [Compound 5.32]
- % Potentiation @ 3.33 μM Avg: 285%

Structure (SMILES): CC(C)(C)NC(=O)c1cc(NC(=O)Cc2ccccc2O)ccn1 [Example 1, N-tert-Butyl-4-[[2-(2-hydroxyphenyl)acetyl]amino]pyridine-2-carboxamide]
- % Potentiation @ 3.33 μM Avg: 203%
- EC50: 210 nM

Structure (SMILES): CCC(C)(C)NC(=O)c1cccc(NC(=O)Cc2ccccc2O)c1 [Example 1.1, N-(1,1-Dimethylpropyl)-3[[2-(2-hydroxyphenyl)acetyl]amino]benzamide]
- % Potentiation @ 3.33 μM Avg: 182%
- EC50: 560 nM

Structure (SMILES): O=C(Cc1cc(Cl)ccc1O)Nc1cccc(C(=O)NC23CC4CC(CC(C4)C2)C3)c1 [Example 1.2, N-(1-Adamantyl)-3-[[2-(5-chloro-2-hydroxy-phenyl)acetyl]amino]benzamide]
- % Potentiation @ 3.33 μM Avg: 170%
- EC50: 540 nM

Structure (SMILES): O=C(Cc1cc(Cl)ccc1O)Nc1ccnc(C(=O)NC23CC4CC(CC(C4)C2)C3)c1 [Example 1.3, N-(1-Adamantyl)-4-[[2-(5-chloro-2-hydroxy-phenyl)acetyl]amino]pyridine-2-carboxamide]
- % Potentiation @ 3.33 μM Avg: 233%
- EC50: 240 nM

Structure (SMILES): COCCC(C)(C)NC(=O)c1cc(NC(=O)Cc2cc(Cl)ccc2O)ccn1 [Example 1.4, 4-[[2-(5-Chloro-2-hydroxy-phenyl)acetyl]amino]-N-(3-methoxy-1,1-dimethyl-propyl)pyridine-2-carboxamide]
- % Potentiation @ 3.33 μM Avg: 195%
- EC50: 400 nM

Structure (SMILES): CCC(C)(C)NC(=O)c1cccc(NC(=O)Cc2cc(Cl)ccc2O)c1 [Example 1.5, 3-[[2-(5-Chloro-2-hydroxy-phenyl)acetyl]amino]-N-(1,1-dimethylpropyl)benzamide]
- % Potentiation @ 3.33 μM Avg: 149%
- EC50: 340 nM

Structure (SMILES): CC1(NC(=O)c2cc(NC(=O)Cc3cc(Cl)ccc3O)ccn2)CCC1 [Example 1.6, 4-[[2-(5-Chloro-2-hydroxy-phenyl)acetyl]amino]-N-(1-methylcyclobutyl)pyridine-2-carboxamide]
- % Potentiation @ 3.33 μM Avg: 255%
- EC50: 60 nM

Structure (SMILES): CC1(NC(=O)c2cc(NC(=O)Cc3cc(Cl)ccc3O)ccn2)CCCCC1 [Example 1.7, 4-[[2-(5-Chloro-2-hydroxy-phenyl)acetyl]amino]-N-(1-methylcyclohexyl)pyridine-2-carboxamide]
- % Potentiation @ 3.33 μM Avg: 239%
- EC50: 150 nM

Structure (SMILES): CC(C)(CCNC(=O)OC(C)(C)C)NC(=O)c1cc(NC(=O)Cc2cc(Cl)ccc2O)ccn1 [Example 1.8, tert-Butyl N-[3-[[4-[[2-(5-chloro-2-hydroxy-phenyl)acetyl]amino]pyridine-2-carbonyl]amino]-3-methyl-butyl]carbamate]
- % Potentiation @ 3.33 μM Avg: 300%
- EC50: 410 nM

Structure (SMILES): COCC(C)(C)NC(=O)c1cccc(NC(=O)Cc2ccccc2O)c1 [Example 1.9, 3-[[2-(2-Hydroxyphenyl)acetyl]amino]-N-(2-methoxy-1,1-dimethyl-ethyl)benzamide]
- % Potentiation @ 3.33 μM Avg: 79%
- EC50: 4200 nM

Structure (SMILES): O=C(Cc1cc(Cl)ccc1O)Nc1ccnc(C(=O)NC2CCCCC2)c1 [Example 1.10, 4-[[2-(5-Chloro-2-hydroxy-phenyl)acetyl]amino]-N-cyclohexyl-pyridine-2-carboxamide]
- % Potentiation @ 3.33 μM Avg: 200%
- EC50: 80 nM

Structure (SMILES): CC(C)(C)NC(=O)c1cccc(NC(=O)Cc2cc(Cl)ccc2O)c1 [Example 2, N-tert-Butyl-3-[[2-(5-chloro-2-hydroxy-phenyl)acetyl]amino]benzamide]
- % Potentiation @ 3.33 μM Avg: 262%
- EC50: 270 nM

Structure (SMILES): CC(C)(C)NC(=O)c1cccc(NC(=O)Cc2cc(F)ccc2O)c1 [Example 2.1, N-tert-Butyl-3-[[2-(5-fluoro-2-hydroxy-phenyl)acetyl]amino]benzamide]
- % Potentiation @ 3.33 μM Avg: 216%
- EC50: 490 nM

Structure (SMILES): CC(C)(C)NC(=O)c1cccc(NC(=O)Cc2cccc(F)c2O)c1 [Example 2.2, N-tert-Butyl-3-[[2-(3-fluoro-2-hydroxy-phenyl)acetyl]amino]benzamide]
- % Potentiation @ 3.33 μM Avg: 158%
- EC50: 1610 nM

Structure (SMILES): CC(C)(C)NC(=O)c1cccc(NC(=O)Cc2ccc(F)cc2O)c1 [Example 2.3, N-tert-Butyl-3-[[2-(4-fluoro-2-hydroxy-phenyl)acetyl]amino]benzamide]
- % Potentiation @ 3.33 μM Avg: 203%
- EC50: 590 nM

Structure (SMILES): CC(C)(C)NC(=O)c1cccc(NC(=O)Cc2c(O)cccc2O)c1 [Example 2.4, N-tert-Butyl-3-[[2-(2,6-dihydroxyphenyl)acetyl]amino]benzamide]
- % Potentiation @ 3.33 μM Avg: 53%

Structure (SMILES): CC(C)(C)NC(=O)c1cccc(NC(=O)CCc2ccccc2O)c1 [Example 2.5, N-tert-Butyl-3-[3-(2-hydroxyphenyl)propanamido]benzamide]
- % Potentiation @ 3.33 μM Avg: 51%
- EC50: 1340 nM

Structure (SMILES): COc1cccc(O)c1CC(=O)Nc1cccc(C(=O)NC(C)(C)C)c1 [Example 2.6, N-tert-Butyl-3-[[2-(2-hydroxy-6-methoxy-phenyl)acetyl]amino] benzamide]
- % Potentiation @ 3.33 μM Avg: 140%
- EC50: 2910 nM

Structure (SMILES): CC(C(=O)Nc1cccc(C(=O)NC(C)(C)C)c1)c1ccccc1O (stereo not drawn) [Example 2.7, N-tert-Butyl-3-[2-(2-hydroxyphenyl)propanamido]benzamide]
- % Potentiation @ 3.33 μM Avg: 51%
- EC50: 8190 nM

Structure (SMILES): COc1cccc(CC(=O)Nc2cccc(C(=O)NC(C)(C)C)c2)c1O [Example 2.8, N-tert-Butyl-3-[[2-(2-hydroxy-3-methoxy-phenyl)acetyl]amino] benzamide]
- % Potentiation @ 3.33 μM Avg: 74%
- EC50: 4550 nM
